# Target: Carbonic anhydrase 12 (Homo sapiens, UniProt O43570)
# Assay: Inhibition of human recombinant carbonic anhydrase 12 preincubated for 10 mins by CO2 hydration stopped-flow assay
# Sequence of Carbonic anhydrase 12 (O43570 whole entry): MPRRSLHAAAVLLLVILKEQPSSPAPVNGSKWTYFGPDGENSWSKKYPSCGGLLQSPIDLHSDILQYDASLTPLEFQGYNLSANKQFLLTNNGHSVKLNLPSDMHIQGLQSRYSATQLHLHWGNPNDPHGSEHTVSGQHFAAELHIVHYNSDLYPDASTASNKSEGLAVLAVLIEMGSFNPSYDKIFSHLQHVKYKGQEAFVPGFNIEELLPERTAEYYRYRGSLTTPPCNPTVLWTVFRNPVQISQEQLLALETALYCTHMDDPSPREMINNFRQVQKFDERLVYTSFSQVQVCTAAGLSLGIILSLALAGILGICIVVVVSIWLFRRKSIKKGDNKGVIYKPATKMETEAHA
row,Ki [nM],SMILES
1,0.43,COc1ccc(CC(=O)NCCc2ccc(S(N)(=O)=O)cc2)cc1
2,3.4,NS(=O)(=O)c1ccc(CCNC(=O)Cc2ccc(Cl)cc2)cc1

# Target: Carbonic anhydrase 9 (Homo sapiens, UniProt Q16790)
# Assay: Inhibition of human recombinant carbonic anhydrase 9 preincubated for 10 mins by CO2 hydration stopped-flow assay
row,Ki [nM],SMILES
1,0.25,COc1ccc(CC(=O)NCCc2ccc(S(N)(=O)=O)cc2)cc1
2,1.2,NS(=O)(=O)c1ccc(CCNC(=O)Cc2ccc(Cl)cc2)cc1
3,1.2,NS(=O)(=O)c1ccc(NC(=O)Cc2ccc(Cl)cc2)c(Br)c1
4,0.52,NS(=O)(=O)c1ccc(NC(=O)Cc2ccccc2Br)c(Br)c1
5,0.62,COc1ccc(CC(=O)Nc2ccc(S(N)(=O)=O)cc2Br)cc1
6,0.53,NS(=O)(=O)c1ccc(CNC(=O)Cc2ccc(Cl)cc2)cc1
7,1,NS(=O)(=O)c1ccc(CNC(=O)Cc2ccccc2Br)cc1
8,0.45,COc1ccc(CC(=O)NCc2ccc(S(N)(=O)=O)cc2)cc1
9,6.5,NS(=O)(=O)c1ccc(CCNC(=O)Cc2ccc(F)cc2)cc1
10,0.57,NS(=O)(=O)c1ccc(CCNC(=O)Cc2ccccc2Br)cc1
11,2.1,NS(=O)(=O)c1nnc(NC(=O)Cc2ccc(F)cc2)s1
12,1.3,NS(=O)(=O)c1nnc(NC(=O)Cc2ccc(Cl)cc2)s1
13,0.61,NS(=O)(=O)c1nnc(NC(=O)Cc2ccccc2Br)s1
14,0.31,COc1ccc(CC(=O)Nc2nnc(S(N)(=O)=O)s2)cc1
15,4.7,NS(=O)(=O)c1ccc(NC(=O)Cc2ccc(F)cc2)cc1
16,72.5,NS(=O)(=O)c1ccc(NC(=O)Cc2ccc(Cl)cc2)cc1
17,0.44,NS(=O)(=O)c1ccc(NC(=O)Cc2ccccc2Br)cc1
18,0.32,COc1ccc(CC(=O)Nc2ccc(S(N)(=O)=O)cc2)cc1
19,7.2,NS(=O)(=O)c1ccc(NC(=O)Cc2ccc(F)cc2)c(F)c1
20,7.8,NS(=O)(=O)c1ccc(NC(=O)Cc2ccc(Cl)cc2)c(F)c1
21,1.6,NS(=O)(=O)c1ccc(NC(=O)Cc2ccccc2Br)c(F)c1
22,1.8,COc1ccc(CC(=O)Nc2ccc(S(N)(=O)=O)cc2F)cc1
23,10.1,NS(=O)(=O)c1ccc(NC(=O)Cc2ccc(F)cc2)c(Cl)c1
24,6.3,NS(=O)(=O)c1ccc(NC(=O)Cc2ccc(Cl)cc2)c(Cl)c1
25,0.74,NS(=O)(=O)c1ccc(NC(=O)Cc2ccccc2Br)c(Cl)c1
26,0.41,COc1ccc(CC(=O)Nc2ccc(S(N)(=O)=O)cc2Cl)cc1
27,5,NS(=O)(=O)c1ccc(NC(=O)Cc2ccc(F)cc2)c(Br)c1
